Reference: US10221163B2 (priority 2015, dated 2019)
Read-outs that look alike come from different tables or passages of the source.

Assays:
[1] = tested on: Serratia marcescens expressing IMP-1 (CL5741); format: cell-based; conditions: for Serratia marcescens expressing IMP-1 (CL5741) MITC95: with imipenem 1 μg/ml, 95% inhibition of bacterial growth; for Serratia marcescens MITC95: IMP-1 strain CL5741, with imipenem 1 μg/ml, 95% inhibition of growth
In short: (§1)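 Clinical isolates (E. coli NDM-1, S. marcescens IMP-1, K. pneumoniae VIM-1) were diluted 1:100 from saline suspension into 1.1×CAMHB and exposed to test compound with imipenem at 1 μg/ml. Plates were incubated at 35° C for 22 hours to 24 hours, and growth was read by absorbance.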

[2] = tested on: Klebsiella pneumoniae expressing VIM-1 (IHMA599644); format: cell-based; conditions: for Klebsiella pneumoniae expressing VIM-1 (IHMA599644) MITC95: with imipenem 1 μg/ml, 95% inhibition of bacterial growth; for Klebsiella pneumoniae MITC95: VIM-1 strain IHMA599644, with imipenem 1 μg/ml, 95% inhibition of growth
In short: as §1

[3] = tested on: Escherichia coli expressing NDM-1 (CLB30005, CLB30016); format: cell-based; conditions: with imipenem 1 μg/ml; for Escherichia coli expressing NDM-1 (CLB30016) MITC95: 95% inhibition of bacterial growth; for Escherichia coli MITC95: NDM-1 strain, 95% inhibition of growth
In short: as §1

[4] = tested on: Pseudomonas aeruginosa efflux+ (MB9798), IMP-1; format: cell-based; parameters: Concentration of metallo-β-lactamase inhibitor which restores susceptibility of efflux + (MB9798) strain to imipenem: unit not given here; conditions: C, D serine β-lactamase inhibitor closely related to relebactam; for P. aeruginosa expressing IMP-1, efflux + (MB9798) MITC95: concentration restoring susceptibility to imipenem at 2 μg/mL in the presence of a class A; for Concentration of metallo-β-lactamase inhibitor which restores susceptibility of efflux + (MB9798) strain to imipenem: imipenem at 2 μg/mL, in the presence of a class A
In short: (§2)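 Steps: add fixed imipenem and/or ceftazidime (usually CLSI breakpoint) and fixed AmpC-directed class A/C inhibitor to microbroth MIC wells; titrate MBL inhibitor; record concentration regaining susceptibility for each PAO1-derived strain; divide efflux+ by efflux− value.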

NDM-1 = NDM-1 (Klebsiella pneumoniae, UniProt C7C422); assay: biochemical; format: biochemical; conditions: fluorescence assay, CCF2-FA substrate, 1 pM enzyme, 2 hours at 25° C.; read-out: NDM-1 IC50
In short: (§3)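 Semi-log dose-response curves, fitted with a 4-parameter model, gave IC50s. The underlying signal was CCF2-FA fluorescence following 2 hours at 25° C with enzyme, substrate and inhibitor combined.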

IMP-1 = IMP-1 (Serratia marcescens, UniProt P52699); assay: biochemical; format: biochemical; conditions: fluorescence assay, CCF2-FA substrate, 2 pM enzyme, 2 hours at 25° C.; read-out: IMP-1 IC50
In short: as §3

VIM-1 = VIM-1 (Pseudomonas aeruginosa (strain ATCC 15692 / DSM 22644 / CIP 104116 / JCM 14847 / LMG 12228 / 1C / PRS 101 / PAO1), UniProt A0A0F7KYQ8); assay: biochemical; conditions: CCF2-FA substrate, 30 pM enzyme, 2 hours at 25° C.
In short: as §3

[5] = tested on: Pseudomonas aeruginosa efflux− (MB9799), IMP-1; format: cell-based; conditions: C, D serine β-lactamase inhibitor closely related to relebactam; for P. aeruginosa expressing IMP-1, efflux − (MB9799) MITC95: concentration restoring susceptibility to imipenem at 2 μg/mL in the presence of a class A; for Concentration of metallo-β-lactamase inhibitor which restores susceptibility of efflux − (MB9799) strain to imipenem: imipenem at 2 μg/mL, in the presence of a class A
In short: as §2

[6] = tested on: Pseudomonas aeruginosa MB9798 vs MB9799
In short: as §2

[7] = ratio MITC95 PA_9798/MITC95 PA_9799
[8] = fluorescence assay, read-out: VIM-1 IC50
[9] = fold difference between efflux+ (MB9798) and efflux− (MB9799) strains, imipenem at 2 μg/mL

NDM-1, sequence (C7C422 whole entry, looked up, species assumed): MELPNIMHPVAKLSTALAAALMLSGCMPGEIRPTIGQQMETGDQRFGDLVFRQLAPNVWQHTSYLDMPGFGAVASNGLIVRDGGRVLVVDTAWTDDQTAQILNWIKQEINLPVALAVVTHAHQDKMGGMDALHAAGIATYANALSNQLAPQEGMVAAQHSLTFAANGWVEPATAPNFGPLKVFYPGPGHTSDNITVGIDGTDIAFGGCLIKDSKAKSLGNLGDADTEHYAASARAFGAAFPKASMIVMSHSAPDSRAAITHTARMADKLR
IMP-1, sequence (P52699 whole entry, looked up, species assumed): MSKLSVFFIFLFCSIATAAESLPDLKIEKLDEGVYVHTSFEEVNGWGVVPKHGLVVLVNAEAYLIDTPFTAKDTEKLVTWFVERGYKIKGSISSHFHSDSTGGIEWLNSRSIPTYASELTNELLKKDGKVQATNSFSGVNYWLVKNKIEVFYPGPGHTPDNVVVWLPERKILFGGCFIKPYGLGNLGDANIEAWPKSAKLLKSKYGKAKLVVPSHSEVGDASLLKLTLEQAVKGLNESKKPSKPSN

SMILES | Serratia marcescens expressing IMP-1 (CL5741) MITC95 [1] [µM] | Klebsiella pneumoniae expressing VIM-1 (IHMA599644) MITC95 [2] [µM] | Escherichia coli expressing NDM-1 (CLB30016) MITC95 [3] [µM] | P. aeruginosa expressing IMP-1, efflux + (MB9798) MITC95 [4] [µM] | IC50 (NDM-1) [pM] | IC50 (IMP-1) [pM] | IC50 (VIM-1; VIM-1 IC50, fluorescence assay) [pM] | P. aeruginosa expressing IMP-1, efflux − (MB9799) MITC95 [5] [µM] | Efflux ratio [6, 7] | Serratia marcescens MITC95 [1] [µM] | Klebsiella pneumoniae MITC95 [2] [µM] | Escherichia coli MITC95 [3] [µM] | Concentration of metallo-β-lactamase inhibitor which restores susceptibility of efflux + (MB9798) strain to imipenem [4] | IC50 (VIM-1; [8]) [pM] | Concentration of metallo-β-lactamase inhibitor which restores susceptibility of efflux − (MB9799) strain to imipenem [5] | Efflux ratio [6, 9]
Nc1ccc(-c2ccc(S(=O)(=O)NCCc3ncc[nH]3)c(S(N)(=O)=O)c2-c2nn[nH]n2)cn1 [Example 218, N^1-(2-(1H-imidazol-2-yl)ethyl)-4-(6-aminopyridin-3-yl)-3-(2H-tetrazol-5-yl)benzene-1,2-disulfonamide] | 0.7813 | 3.125 | 0.1953 | 25 | 786 | 694 | 549 | 1.563 | 15.99 | – | – | – | – | – | – | –
C[C@@H](CN)NS(=O)(=O)c1ccc(-c2cccc3[nH]c(N)nc23)c(-c2nn[nH]n2)c1S(N)(=O)=O [Example 186] | 1.563 | 1.563 | 0.7813 | 1.563 | 366 | 4090 | 901 | 0.7813 | 2.00 | – | – | – | – | – | – | –
NC(=O)c1csc(Nc2cccc(-c3ccc(S(=O)(=O)N[C@@H]4CCNC4)c(S(N)(=O)=O)c3-c3nn[nH]n3)c2)n1 [Example 471, (R)-2-((4′-(N-(pyrrolidin-3-yl)sulfamoyl)-3′-sulfamoyl-2′-(2H-tetrazol-5-yl)-[1,1′-biphenyl]-3-yl)amino)thiazole-4-carboxamide] | – | – | – | – | 30.3 | 111 | – | – | – | 1.563 | 3.125 | 1.563 | 3.125 | 73.4 | 0.7813 | 4.00
N[C@H]1C=C(c2ccc(S(=O)(=O)N[C@@H]3CCNC3)c(S(N)(=O)=O)c2-c2nn[nH]n2)CCC1 [Example 339, (R)-5′-amino-N4-((R)-pyrrolidin-3-yl)-2-(2H-tetrazol-5-yl)-2′,3′,4′,5′-tetrahydro-[1,1′-biphenyl]-3,4-disulfonamide] | – | – | – | 6.25 | 11900 | 34100 | 2100 | 1.563 | 4.00 | 1.563 | 0.7813 | 0.7813 | – | – | – | –
NC[C@H](O)CNS(=O)(=O)c1ccc(-c2cnc(N)c(F)c2)c(-c2nn[nH]n2)c1S(N)(=O)=O [Example 469, (S)-N1-(3-amino-2-hydroxypropyl)-4-(6-amino-5-fluoropyridin-3-yl)-3-(2H-tetrazol-5-yl)benzene-1,2-disulfonamide] | – | – | – | – | 153 | 554 | 86.8 | – | – | 3.125 | 3.125 | 1.563 | 0.7813 | – | 0.7813 | 1.00
Cn1c(N)nc2c(-c3ccc(S(=O)(=O)N[C@H]4CC[N+](C)(C)C4)c(S(N)(=O)=O)c3-c3nn[n-]n3)cccc21 [Example 167, (S)-5-(6-(2-amino-1-methyl-1H-benzo[d]imidazol-4-yl)-3-(N-(1,1-dimethylpyrrolidin-1-ium-3-yl)sulfamoyl)-2-sulfamoylphenyl)tetrazol-2-ide] | 1.563 | 3.125 | 1.563 | 3.125 | 59.1 | 346 | 169 | 1.563 | 2.00 | – | – | – | – | – | – | –
Nc1nc2c(-c3ccc(S(=O)(=O)N[C@@H]4CNC[C@@H]4O)c(S(N)(=O)=O)c3-c3nnn[nH]3)cccc2[nH]1 [Example 170, 4-(2-amino-1H-benzo[d]imidazol-4-yl)-N^1-((3R,4S)-4-hydroxypyrrolidin-3-yl)-3-(1H-tetrazol-5-yl)benzene-1,2-disulfonamide] | 0.7813 | 1.563 | 0.7813 | 0.7813 | 80.3 | 1120 | 256 | 0.7813 | 1.00 | – | – | – | – | – | – | –
Nc1nc2c(-c3ccc(S(=O)(=O)N4CC(N)C4)c(S(N)(=O)=O)c3-c3nn[nH]n3)cccc2s1 [Example 147, 6-((3-aminoazetidin-1-yl)sulfonyl)-3-(2-aminobenzo[d]thiazol-4-yl)-2-(2H-tetrazol-5-yl)benzenesulfonamide] | 6.25 | 12.5 | 25 | 3.125 | 550 | 494 | – | 3.125 | 1.00 | – | – | – | – | 559 | – | –
CN1CCC(N(C)S(=O)(=O)c2ccc(-c3cccc4sc(N)nc34)c(-c3nnn[nH]3)c2S(N)(=O)=O)C1 (stereo not drawn) [Example 54, 4-(2-amino-1,3-benzothiazol-4-yl)-N1-methyl-N1-(1-methylpyrrolidin-3-yl)-3-(1H-tetrazol-5-yl)benzene-1,2-disulfonamide] | 3.125 | 6.25 | 6.25 | 6.25 | 190 | 1930 | – | 3.125 | 2.00 | – | – | – | – | 3640 | – | –
NCCNS(=O)(=O)c1ccc(-c2cccc3ccc(N)nc23)c(-c2nn[nH]n2)c1S(N)(=O)=O [Example 355, N1-(2-aminoethyl)-4-(2-aminoquinolin-8-yl)-3-(2H-tetrazol-5-yl)benzene-1,2-disulfonamide] | – | – | – | 0.7813 | 50.9 | 200 | 141 | 0.7813 | 1.00 | 0.7813 | 1.563 | 0.1953 | – | – | – | –
